Experiments:
COX-2 = biological target: T1, COX-2 (Homo sapiens, UniProt P35354); assay: COX Inhibitor Screening Assay Kit, COX-2; format: biochemical
T1 sequence (P35354 18-604): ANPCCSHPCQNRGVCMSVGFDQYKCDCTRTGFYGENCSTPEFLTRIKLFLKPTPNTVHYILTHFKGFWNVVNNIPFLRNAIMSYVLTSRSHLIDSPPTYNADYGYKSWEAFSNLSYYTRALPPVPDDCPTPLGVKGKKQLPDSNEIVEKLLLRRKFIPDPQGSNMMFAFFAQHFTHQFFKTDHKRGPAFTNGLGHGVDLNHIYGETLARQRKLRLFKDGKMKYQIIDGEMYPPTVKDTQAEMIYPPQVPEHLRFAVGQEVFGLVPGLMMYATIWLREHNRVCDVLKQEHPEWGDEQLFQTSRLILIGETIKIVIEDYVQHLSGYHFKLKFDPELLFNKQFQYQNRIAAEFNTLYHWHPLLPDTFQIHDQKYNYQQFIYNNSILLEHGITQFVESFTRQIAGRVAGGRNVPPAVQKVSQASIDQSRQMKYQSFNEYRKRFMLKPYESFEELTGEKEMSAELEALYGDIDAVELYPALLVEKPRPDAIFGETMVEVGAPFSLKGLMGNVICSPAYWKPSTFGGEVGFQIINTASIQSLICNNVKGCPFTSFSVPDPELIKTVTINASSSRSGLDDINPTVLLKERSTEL
Excerpt: Fifty percent inhibitory concentration (IC50) means the concentration of test sample necessary for inhibiting PGE2 synthesis by 50% compared to non-inhibitory control sample. It can be also determined by measuring the amount of PGE2 produced by adding test samples to cells having cyclooxygenase activity. COX-1/COX-2 ratio means the ratio of […], and the higher the ratio is, the more specific to COX-2 the agent is.
To verify the results of Experiment 2, it was investigated that whether the activity of COXs, essential enzymes for PGE2 synthesis system, can be inhibited. […] An experimental system without the test samples was set as control. The residual activity of COX-1 or COX-2 was determined as relative activity versus control.

RAW264.7 cells [1] = assay: NO production by macrophage RAW264.7, Griess method; format: cell-based, mouse; details: LPS + IFN-γ, 2 days, relative level versus control
Excerpt: As macrophage cells, RAW264.7 cell strain from mouse or macrophage cells obtained from laboratory animals such as mouse can be used. The amount of produced NO can be measured by conventional Griess method. […] RAW264.7 cells, a murine macrophage cell strain, were suspended in PRMI1640 medium supplied with 10% (v/v) fetal calf serum (hereinafter abbreviated as “FCS”) to give a cell suspension with a cell concentration of 1×10^6 cells/ml. […] The experimental system without the test samples described above was set as control. […] NO production, PGE2 production and macrophage growth are indicated as relative levels versus controls.

RAW264.7 cells [2] = assay: PGE2 production by macrophage RAW264.7, PGE2-EIA kit; format: cell-based, mouse; details: LPS + IFN-γ, 2 days, relative level versus control
Excerpt: (§1) RAW264.7 cells, a murine macrophage cell strain, were suspended in PRMI1640 medium supplied with 10% (v/v) fetal calf serum (hereinafter abbreviated as “FCS”) to give a cell suspension with a cell concentration of 1×10^6 cells/ml. […] The experimental system without the test samples described above was set as control. […] NO production, PGE2 production and macrophage growth are indicated as relative levels versus controls.

RAW264.7 cells [3] = assay: Macrophage growth, living cell count; format: cell-based, mouse; details: 2 days, relative level versus control
Excerpt: as §1

[4] = system: NHDF, normal fibroblast from human fetus; assay: Collagen production by NHDF, Sircol Collagen Assay; format: cell-based; details: 6 days; for Collagen production (μg/well), AA-2G addition: 50 μM AA-2G; for Collagen production (μg/well), AA-2G free: no AA-2G
Procedure: NDHF cells (commercialized by Kurabo Industries Ltd. Osaka, Japan, catalog No. “KF-4001”) were suspended in D-MEM supplemented with 10 (v/v) % FCS to give a concentration of 5×10^5 cells/ml, and the suspension was sown in 96-well microplate by 50 μl per well. […] After cultured at 37° C. for a day, the supernatant was removed and any one of the samples and D-MEM medium supplemented with 10 (v/v) % FCS containing 100 μM AA-2G (a final concentration of 50 μM) or D-MEM medium supplemented with 10 (v/v) % FCS not containing AA-2G were added by 100 μl per well, and cultured at 37° C. for 3 days in 5 (v/v) % CO2 atmosphere. […] After the culture supernatant was removed, 1 M acetate solution containing 1 mg/ml of pepsin (commercialized by SIGMA, Inc.) was added by 50 μl per well and the plate was shaken at room temperature for 4 hours with a plate mixer for pepsin digestion. The digest was collected in a 1.5 ml-tube by pipetting, admixed with 200 μl per tube of Dye Reagent of Sircol Collagen Assay Kit (commercialized by Biocolor Ltd.), and allowed to react at room temperature for 30 minutes by inversely mixing. The supernatant of the reaction mixture was completely removed bycentrifugation (4° C., 15,000 rpm, 10 minutes), […] dissolved in 50 μl of 1 N NaOH, the resulting supernatant was measured for its absorbance at 560 nm to 650 nm. […] According to the standard curve, the amount of collagen in the pepsin digest of the cells was calculated.

[5] = read-out: residual activity of COX-2

Nc1cc2nc3ccccc3oc-2cc1=O [2-Aminophenoxazine-3-one, 2-aminophenoxazine-3-one]
IC50 (COX-2; PGE2 from arachidonic acid, read-out: IC50 COX-2): 4.83 µM
COX-1/COX-2 ratio (COX-2; ratio of IC50 values of Table 2): about 1.3
remaining activity at 1.9 µM (COX-2; [5]): 95%
remaining activity at 3.8 µM (COX-2; [5]): 37%
remaining activity at 7.6 µM (COX-2; [5]): 29%
NO production (%) (RAW264.7 cells [1]; 0.16 μM): 85%
NO production (%) (RAW264.7 cells [1]; 0.31 μM): 78%
NO production (%) (RAW264.7 cells [1]; 0.63 μM): 70%
NO production (%) (RAW264.7 cells [1]; 1.3 μM): 54%
NO production (%) (RAW264.7 cells [1]; 2.5 μM): 32%
NO production (%) (RAW264.7 cells [1]; 5.0 μM): 19%
NO production (%) (RAW264.7 cells [1]; 10 μM): 14%
PGE2 production (%) (RAW264.7 cells [2]; 0.16 μM): 76%
PGE2 production (%) (RAW264.7 cells [2]; 0.31 μM): 45%
PGE2 production (%) (RAW264.7 cells [2]; 0.63 μM): 13%
PGE2 production (%) (RAW264.7 cells [2]; 1.3 μM): 6%
PGE2 production (%) (RAW264.7 cells [2]; 2.5 μM): 1%
PGE2 production (%) (RAW264.7 cells [2]; 5.0 μM): 3%
PGE2 production (%) (RAW264.7 cells [2]; 10 μM): 2%
Macrophage growth (%) (RAW264.7 cells [3]; 0.16 μM): 117%
Macrophage growth (%) (RAW264.7 cells [3]; 0.31 μM): 121%
Macrophage growth (%) (RAW264.7 cells [3]; 0.63 μM): 127%
Macrophage growth (%) (RAW264.7 cells [3]; 1.3 μM): 127%
Macrophage growth (%) (RAW264.7 cells [3]; 2.5 μM): 119%
Macrophage growth (%) (RAW264.7 cells [3]; 5.0 μM): 112%
Macrophage growth (%) (RAW264.7 cells [3]; 10 μM): 86%
Collagen production (μg/well), AA-2G addition ([4]; QA 0.125 μM): 1.32 ± 0.45 μg/well
Collagen production (μg/well), AA-2G free ([4]; QA 0.125 μM): 0.66 ± 0.05 μg/well
Collagen production (μg/well), AA-2G addition ([4]; QA 0.25 μM): 1.64 ± 0.21 μg/well
Collagen production (μg/well), AA-2G free ([4]; QA 0.25 μM): 0.64 ± 0.06 μg/well
Collagen production (μg/well), AA-2G addition ([4]; QA 0.5 μM): 1.57 ± 0.18 μg/well
Collagen production (μg/well), AA-2G free ([4]; QA 0.5 μM): 0.63 ± 0.07 μg/well
Collagen production (μg/well), AA-2G addition ([4]; QA 1.0 μM): 1.03 ± 0.22 μg/well
Collagen production (μg/well), AA-2G free ([4]; QA 1.0 μM): 0.71 ± 0.10 μg/well
Collagen production (μg/well), AA-2G addition ([4]; QA 2.0 μM): 0.58 ± 0.06 μg/well
Collagen production (μg/well), AA-2G free ([4]; QA 2.0 μM): 0.70 ± 0.16 μg/well

— patent US20100324285A1, “ANTIINFLAMMATORY AGENT COMPRISING 2-AMINOPHENOL OR DERIVATIVE THEREOF AS ACTIVE INGREDIENT” (priority 2006, published 2010)
